Assay results from patent US5629309A, “2-substituted indane-2-mercaptoacetylamide disulfide derivatives useful as inhibitors of enkephalinase and ACE” (Merrell Pharmaceuticals Inc., priority 1995, dated 1997).

Molecular target: T1, ACE, rat kidney preparations (Rattus norvegicus, UniProt P47820)
T1 construct: either compound- or vehicle-dosed rat kidney preparations; from tissue; host or cells: kidney of male Sprague-Dawley rats
T1 sequence (P47820 36-1313): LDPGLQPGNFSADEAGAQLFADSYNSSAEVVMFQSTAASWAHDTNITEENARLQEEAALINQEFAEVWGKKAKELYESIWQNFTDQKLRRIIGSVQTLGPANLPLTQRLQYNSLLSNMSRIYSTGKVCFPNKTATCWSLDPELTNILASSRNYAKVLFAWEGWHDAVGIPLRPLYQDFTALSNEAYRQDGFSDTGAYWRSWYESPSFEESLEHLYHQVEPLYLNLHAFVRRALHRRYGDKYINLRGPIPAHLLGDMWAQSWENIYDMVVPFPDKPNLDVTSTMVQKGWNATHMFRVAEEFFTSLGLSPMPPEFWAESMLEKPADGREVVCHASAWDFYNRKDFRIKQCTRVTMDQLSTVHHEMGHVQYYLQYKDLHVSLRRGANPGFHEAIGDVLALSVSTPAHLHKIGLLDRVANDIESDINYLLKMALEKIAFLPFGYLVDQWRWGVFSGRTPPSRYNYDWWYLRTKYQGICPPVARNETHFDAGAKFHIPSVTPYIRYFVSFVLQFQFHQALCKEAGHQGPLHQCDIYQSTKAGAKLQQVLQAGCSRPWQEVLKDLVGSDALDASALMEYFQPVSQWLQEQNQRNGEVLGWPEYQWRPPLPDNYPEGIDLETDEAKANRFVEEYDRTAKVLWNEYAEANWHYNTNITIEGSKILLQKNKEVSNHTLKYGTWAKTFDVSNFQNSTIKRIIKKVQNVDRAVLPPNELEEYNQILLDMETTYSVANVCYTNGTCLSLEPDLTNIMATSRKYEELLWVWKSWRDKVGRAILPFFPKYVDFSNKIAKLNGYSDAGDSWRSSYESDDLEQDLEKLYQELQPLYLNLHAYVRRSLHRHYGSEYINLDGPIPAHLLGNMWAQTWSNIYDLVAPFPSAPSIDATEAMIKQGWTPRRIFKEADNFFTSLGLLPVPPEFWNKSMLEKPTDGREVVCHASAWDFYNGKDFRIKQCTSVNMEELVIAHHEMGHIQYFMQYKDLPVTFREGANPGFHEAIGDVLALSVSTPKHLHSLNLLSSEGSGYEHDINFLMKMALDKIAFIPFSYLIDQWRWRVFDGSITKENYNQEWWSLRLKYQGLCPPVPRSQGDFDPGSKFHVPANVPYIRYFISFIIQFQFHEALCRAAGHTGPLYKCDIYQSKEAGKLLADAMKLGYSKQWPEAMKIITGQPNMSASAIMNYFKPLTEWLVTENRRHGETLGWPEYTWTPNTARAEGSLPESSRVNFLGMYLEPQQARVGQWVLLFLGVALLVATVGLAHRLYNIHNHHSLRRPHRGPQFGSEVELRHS
Experiment: Radiometric ACE assay with tritiated hippuryl-glycyl-glycine, rat kidney preparations
Assay type: biochemical
Conditions: 1 μM enalaprilat; compound- or vehicle-dosed rat kidney preparations

C[C@H](N[C@@H](CCc1ccccc1)C(=O)O)C(=O)N1CCC[C@H]1C(=O)O [enalaprilat]
inhibition of radioactive product formation: Complete inhibition
